Reference: patent US12305197B2, “Proliferation method” (Kao Corporation, priority 2019, dated 2025)

Tests used:
[1] = test system: H1N1 (laboratory strain) influenza virus strain; assay type: cell-based, influenza A virus
[2] = test system: H3N2 influenza virus strain (A/Memphis/l/1971); assay type: cell-based
[3] = test system: H1N1 (laboratory strain) influenza virus strain; assay type: cell-based, influenza A virus; remark: listed apart in the source
[4] = test system: H3N2 influenza virus strain (A/Memphis/l/1971); assay type: cell-based; remark: listed apart in the source
[5] = test system: H1N1pdm influenza virus strain (A/Shizuoka/830/2009); assay type: cell-based
[6] = test system: influenza B virus strain (B/Lee/1940); assay type: cell-based
[7] = test system: influenza B virus strain (B/Lee/1940); assay type: cell-based; remark: listed apart in the source
[8] = test system: H1N1pdm influenza virus strain (A/Shizuoka/830/2009); assay type: cell-based; remark: listed apart in the source
[9] = test system: H1N1 influenza virus strain (A/Puerto Rico/8/1934); conditions: in vivo

Substance: Pro-Met-Leu-Lys-Glu (PMLKE) [SEQ ID NO: 2]
- amount of influenza virus (virus proliferation capacity) by focus assay, low concentration [1]: enhances the virus proliferation capacity
- HA titer of influenza virus, low Bax inhibitor concentration [2]: increase in the HA titer of the influenza virus was also observed
- HA titer of influenza virus, low Bax inhibitor concentration [3]: increase in the HA titer of the influenza virus was also observed
- amount of influenza virus (virus proliferation capacity) by focus assay, low concentration [4]: enhances the virus proliferation capacity
- amount of influenza virus (virus proliferation capacity) by focus assay, low concentration [5]: enhances the virus proliferation capacity
- HA titer of influenza B virus [6]: increases
- amount of influenza B virus (virus proliferation capacity) by plaque assay [7]: exhibit the effect of enhancing the virus proliferation capacity
- HA titer of influenza virus, low Bax inhibitor concentration [8]: increase in the HA titer of the influenza virus was also observed

Substance: Val-Pro-Met-Leu-Lys (VPMLK) [SEQ ID NO: 1]
- HA titer of influenza virus [2]: increases
- HA titer of influenza virus, low Bax inhibitor concentration [2]: increases
- HA titer of influenza virus, time-dependent [2]: increases the HA titer of the influenza virus strains in the early stages of the culture
- HA titer of influenza virus, low Bax inhibitor concentration [3]: increases
- amount of influenza virus (virus proliferation capacity) by focus assay [4]: exhibits the effect of enhancing the virus proliferation capacity
- amount of influenza virus (virus proliferation capacity) by focus assay [5]: exhibits the effect of enhancing the virus proliferation capacity
- HA titer of influenza B virus [6]: increases
- amount of influenza B virus (virus proliferation capacity) by plaque assay [7]: exhibit the effect of enhancing the virus proliferation capacity
- HA titer of influenza virus [8]: increases
- HA titer of influenza virus, low Bax inhibitor concentration [8]: increases
- HA titer of influenza virus, time-dependent [8]: increases the HA titer of the influenza virus strains in the early stages of the culture

Substance: Val-Ser-Ala-Leu-Lys (VSALK) [SEQ ID NO: 7]
- increase of viral titer versus control group [9]: 1.27 times
- viral titer compared with 10-fold control group (5×10^3 EID50/chicken egg) [9]: higher
